Assay results taken from ChEMBL document CHEMBL4673356, “Assessing the cellular toxicity of peptide inhibitors of intracellular protein-protein interactions by microinjection” (Bioorg Med Chem, 2021).
Where a SMILES comes first, the peptide text is derived from it. [ ]: non-standard residue; d: D form. The star is where a group is joined. X1 = CCN1/C(=C/C=C/C=C/C2=[N+](CCCCCC(=O)*)c3ccc(S(=O)(=O)[O-])cc3C2(C)C)C(C)(C)c2cc(S(=O)(=O)O)ccc21; βAla = NCCC(=O)O

How the values were obtained:
[1] = Inhibition of iNOS (unknown origin) and SPSB2 interaction assessed as binding affinity to murine SPSB2 immobilized on CM5 chip by SPR assay; parameters: species or system Mus musculus
[2] = Drug localization in cytosol of human AD293 cells at 7.3 uM treated via microinjection into cytoplasm measured up to 5 hrs by confocal microscopic analysis; type: ADME, subcellular
[3] = Stability of the compound in human AD293 cells assessed as intact compound remaining at 20 uM measured after 5 hrs by LC-MS analysis; type: ADME, cell-based; details: read-out: Stabilty
[4] = Stability of the compound in human AD293 cells assessed as intact compound remaining at 20 uM measured after 24 hrs by LC-MS analysis; type: ADME, cell-based; details: read-out: Stabilty
AD293 [5] = experiment: Cytotoxicity against human AD293 cells assessed as cell viability at 2.7 to 273 uM co-treated via microinjection with Cy5-BSA into cytoplasm and measured after 5 hrs by Cy5-BSA/PI staining based fluorescence analysis; details: ad293, 5 h, dose 2.7-273 µM
AD293 [6] = experiment: Cytotoxicity against human AD-293 cells assessed as morphologically intact viable cells at 2.7 to 273 uM co-treated via microinjection with Cy5-BSA into cytoplasm and measured after 5 hrs by Cy5-BSA/PI staining based fluorescence analysis; type: cell-based; details: ad293, 5 h, dose 2.7-273 µM
AD293 [7] = experiment: Cytotoxicity against human AD293 cells assessed as cell viability at 2.7 to 273 uM co-treated via microinjection with Cy5-BSA into nucleus and measured after 5 hrs by Cy5-BSA/PI staining based fluorescence analysis; details: ad293, 5 h, dose 2.7-273 µM
AD293 [8] = experiment: Cytotoxicity against human AD293 cells assessed as cell viability at 200 uM; type: cell-based; details: ad293, 200 µM

| Kd [1] [nM] | Drug uptake [2] | remaining at 5 h, 20 µM [3] [%] | remaining at 24 h, 20 µM [4] [%] | SMILES | Activity (AD293 [5]) | Activity (AD293 [6]) | Activity (AD293 [7]) | Activity (AD293 [8]) |
| --- | --- | --- | --- | --- | --- | --- | --- | --- |
| 110 | Active | – | – | CCN1/C(=C/C=C/C=C/C2=[N+](CCCCCC(=O)NCCCC[C@@H]3NC(=O)[C@H](CC(=O)O)NC(=O)[C@H](Cc4c[nH]c5ccccc45)NC(=O)CCNC(=O)[C@H](CC(N)=O)NC(=O)[C@H](CC(N)=O)NC(=O)[C@H](CC(N)=O)NC3=O)c3ccc(S(=O)(=O)[O-])cc3C2(C)C)C(C)(C)c2cc(S(=O)(=O)O)ccc21 (cyclo(DK(X1)NNN[βAla]W)) | – | – | – | – |
| 21 | – | 97.5 | 94.7 | CC[C@H](C)[C@@H]1NC(=O)[C@H](CC(=O)O)NC(=O)[C@H](Cc2c[nH]c3ccccc23)NC(=O)CCNC(=O)[C@H](CC(N)=O)NC(=O)[C@H](CC(N)=O)NC(=O)[C@H](CC(N)=O)NC1=O (cyclo(DINNN[βAla]W)) | Non-Toxic | Non-Toxic | Non-Toxic | Non-Toxic |
